Data on 1 molecule can be found in publication PMC6071250 (2018).

Assay [1] deals with anti-AFT B1 aptamer (DNA, aptamer) GTTGGGCACGTGTTGTCTCTCTGTGTCTCGTGCCCTTCGCTAGGCCCACA
Put plainly: TIRE/LSPR spectral shift. The following applies: 3 mM MgCl2, Na+ and K+ (HBB: 120 mM NaCl, 5 mM KCl; PBB: 137 mM NaCl, 2.7 mM KCl); HBB or PBB pH 7.4; stated not to bind; concentration tested not stated; immobilised aptamer.

In assay [2] the test system is anti-AFT M1 aptamer (DNA, aptamer) ACTGCTAGAGATTTTCCACAT
The experiment in a line: TIRE/LSPR spectral shift. The note with it: 3 mM MgCl2, Na+ and K+ (HBB: 120 mM NaCl, 5 mM KCl; PBB: 137 mM NaCl, 2.7 mM KCl); HBB or PBB pH 7.4; stated not to bind; concentration tested not stated; immobilised aptamer.

SMILES strings stand for the structures.

For `C[C@@H]1Cc2c(Cl)cc(C(=O)N[C@@H](Cc3ccccc3)C(=O)O)c(O)c2C(=O)O1`, the binding result in assay [1] and in assay [2] was “no” each time.
